According to the NIST ThermoML archive (doi:10.1021/je300347z):

Experiments:
[1] = Liquid; for mass density: 293.2 K, 101.33 kPa, Vibrating tube method
[2] = refractive index (Na D-line) (dimensionless); details: 293.2 K; 101.33 kPa; Liquid; Standard Abbe refractometry

CCCCO [butan-1-ol]
Details	mass density [kg/m3]	refractive index
[1]	810.28	–
[2]	–	1.3993

[1]
Details	vapor or sublimation pressure [kPa]
337.2 K	10
351.1 K	20
360 K	30
366.7 K	40
372.1 K	50
376.6 K	60
380.5 K	70
384 K	80
387.2 K	90
390.1 K	100

CCO [ethanol]
Details	mass density [kg/m3]	refractive index
[1]	789.91	–
[2]	–	1.3612

[1]
Details	vapor or sublimation pressure [kPa]
302.4 K	10
315.4 K	20
323.6 K	30
329.7 K	40
330 K	40
334.7 K	50
338.8 K	60
342.4 K	70
345.6 K	80
348.5 K	90
351.1 K	100

CCCCCO [pentan-1-ol]
Details	mass density [kg/m3]	refractive index
[1]	814.16	–
[2]	–	1.4097

[1]
Details	vapor or sublimation pressure [kPa]
354 K	10
368.7 K	20
378 K	30
384.7 K	40
385.3 K	40
391 K	50
395.9 K	60
400.2 K	70
403.9 K	80
407.3 K	90
410.4 K	100

CC(C)O [propan-2-ol]
Details	mass density [kg/m3]	refractive index
[1]	785.42	–
[2]	–	1.3771

[1]
Details	vapor or sublimation pressure [kPa]
307.1 K	10
319.9 K	20
328 K	30
334 K	40
334.1 K	40
338.8 K	50
342.9 K	60
346.5 K	70
349.7 K	80
352.5 K	90
355 K	100

CCCO [propan-1-ol]
Details	mass density [kg/m3]	refractive index
[1]	801.33	–
[2]	–	1.3851

[1]
Details	vapor or sublimation pressure [kPa]
319.6 K	10
332.8 K	20
341.3 K	30
347.7 K	40
352.7 K	50
357.1 K	60
360.8 K	70
364.1 K	80
367.1 K	90
369.8 K	100

C=C(C)[C@H]1CC=C(C)CC1 [(R)-1-methyl-4-(1-methylethenyl)cyclohexene]
Details	mass density [kg/m3]	refractive index
[1]	814.83	–
[2]	–	1.473

[1]
Details	vapor or sublimation pressure [kPa]
375.5 K	10
394.5 K	20
403.2 K	27.48
406.5 K	30
415.7 K	40
415.8 K	40
423.2 K	49.74
423.4 K	50
429.8 K	60
435.5 K	70
440.5 K	80
445 K	90
450 K	100

CCCCCCO [hexan-1-ol]
Details	mass density [kg/m3]	refractive index
[1]	816.31	–
[2]	–	1.4207

[1]
Details	vapor or sublimation pressure [kPa]
369.8 K	10
385.7 K	20
395.7 K	30
403.2 K	40
403.4 K	40
409.3 K	50
414.5 K	60
419 K	70
423 K	80
426.5 K	90
429.6 K	99.7
